SMILES strings stand for the structures. Values after ≈ are worked out from the molar mass of the structure shown.

Experimental findings from US5607927A, “Cephalosporin derivative” (Meiji Seika Kaisha, Ltd., priority 1992, dated 1997) are described below.

The nature of series [1]: concentration in blood after subcutaneous injection (serum concentration by HPLC). The format is in vivo. The settings on record: sc, ICR mice, male, 0.5 mg per mouse subcutaneous; for Cmax: 4 weeks old, serum by HPLC, read-out: Maximum concentration in blood; for half-life / AUC: serum, Gauss-Newton method; for half-life: read-out: Half-life period (converted); for AUC: sampling 5 minutes to 2 hours, read-out: AUC (area under the plasma concentration-time curve). The procedure:
This test example illustrates that the following typical examples of the compound of the present invention can give and maintain their concentrations in blood at high levels after subcutaneous injection. Test Compounds:
The test was carried out in the following manner. Using five male mice of ICR line (4 weeks old, 1 individual/group for blood collection), 0.5 mg of each test compound dissolved in 0.2 ml of sterile water for injection use was administered to each mouse by subcutaneous injection. Blood collection was carried out after 5 minutes, 15 minutes, 30 minutes, 1 hour and 2 hours after the administration. Each of the thus collected blood samples was subjected to ordinary post-treatment, and then serum concentration of the cephem compound was measured by making use of HPLC. Half-life period and AUC (area under the plasma concentration-time curve) as pharmacokinetic parameters were calculated in accordance with the Gauss-Newton method.

Series [2] concerns Sta. aureus M 126 (methicillin-resistant). The experiment in a line: minimum growth inhibitory concentration, ordinary serial dilution technique. Type of series: cell-based. The note with it: Staphylococcus aureus, 10^6 CFU/ml, 35° C., 18 to 20 hours. The procedure:
(§1) In this test example, antibacterial activities of the following typical examples of the compound (I) of the present invention upon various bacterial species are illustrated by showing their minimum growth inhibitory concentrations measured by the ordinary serial dilution technique. The measurement was made by inoculating 10^6 CFU/ml of each test strain on a Sensitivity Plate Medium N (Nissui Pharmaceutical Co., Ltd.) and culturing the inoculated cells at 35° C. for 18 to 20 hours. Test Compounds:
(§2) Note: (*), methicillinresistant Staphylococcus aureus

The subject of series [3] is Sta. aureus M 133 (methicillin-resistant). Described as above. The settings on record: Staphylococcus aureus, 10^6 CFU/ml, 35° C., 18 to 20 hours. The format is cell-based. On the procedure: as §1, §2
The subject of the next series is M. morganii 1510/S-l. The series is described as above. Type of series: cell-based. The settings on record: Morganella morganii, 1510/SL, 10^6 CFU/ml, 35° C., 18 to 20 hours. On the procedure: (§3) In this test example, antibacterial activities of the following typical examples of the compound (I) of the present invention upon various bacterial species are illustrated by showing their minimum growth inhibitory concentrations measured by the ordinary serial dilution technique. The measurement was made by inoculating 10^6 CFU/ml of each test strain on a Sensitivity Plate Medium N (Nissui Pharmaceutical Co., Ltd.) and culturing the inoculated cells at 35° C. for 18 to 20 hours.

The test system of another series is E. coli NIHJ JC-2. The description is as above. Type of series: cell-based. The settings on record: Escherichia coli, NIHJJC2, 10^6 CFU/ml, 35° C., 18 to 20 hours. On the procedure:
as §3

Another series relates to Sta. aureus 209P JC-1. The series is described as above. The settings on record: Staphylococcus aureus, 10^6 CFU/ml, Sensitivity Plate Medium N, 35° C., 18 to 20 hours. The format is cell-based. The procedure: as §3
The next series concerns P. vulgaris GN 76. The description is as above. The settings on record: Proteus vulgaris, GN76, 10^6 CFU/ml, 35° C., 18 to 20 hours. Type of series: cell-based. On the procedure: as §3
For series [4], the system named is Sta. epidermidis ATCC 14990. Described as above. Type of series: cell-based. The settings on record: Staphylococcus epidermidis, ATCC14990, 10^6 CFU/ml, 35° C., 18 to 20 hours. The procedure:
as §3

In a further series the test system is K. pneumoniae PCI 602. The description is as above. Type of series: cell-based. The settings on record: Klebsiella pneumoniae, PCI602, 10^6 CFU/ml, 35° C., 18 to 20 hours. On the procedure:
as §3

Series [5] in a line: acute toxicity (LD50) i.v. in mice. The note with it: mouse, in vivo, iv.

As for `CO/N=C(\C(=O)NC1C(=O)N2C(C(=O)O)=C(Sc3nc4ccccc4o3)CSC12)c1csc(N)n1` (centres unmarked) [Compound C, 7-{(Z)-2-(2-aminothiazol-4-yl)-2-methoxy-iminoacetamido}-3-(benzoxazol-2-yl)thio-3-cephem-4-carboxylic acid], in series [1], the Cmax turned out to be 141 µg/mL, the half-life is 2.1 h and the AUC came out at 442 µg·h/mL.

On to `CO/N=C(\C(=O)NC1C(=O)N2C(C(=O)O)=C(Sc3nc4cccnc4s3)CS[C@H]12)c1nsc(N)n1` (some centres unmarked) [Compound B, 7-{(Z)-2-(5-amino-1,2,4-thiadiazol-3-yl)-2-methoxyiminoacetamido}-3-(thiazolo[5,4-b]pyridin-2-yl)thio-3-cephem-4-carboxylic acid], for which the minimal inhibitory concentration (MIC) in series [2] was 12.5 µg/mL (≈ 22.7 µM); in series [3] it was 3.13 µg/mL (≈ 5.68 µM); in the series on M. morganii 1510/S-l it was 50 µg/mL (≈ 90.8 µM); in the series with E. coli NIHJ JC-2 it was 3.13 µg/mL (≈ 5.68 µM); against Sta. aureus 209P JC-1, 0.78 µg/mL (≈ 1.42 µM); in the series with P. vulgaris GN 76, 12.5 µg/mL (≈ 22.7 µM). Also, the MIC worked out at 0.39 µg/mL (≈ 0.708 µM) in series [4] and 3.13 µg/mL (≈ 5.68 µM) against K. pneumoniae PCI 602. The Cmax in series [1] was found to be 110 µg/mL. Also, the half-life in series [1] was 1.3 h. In addition, in [1], the AUC turned out to be 230 µg·h/mL.

For `CO/N=C(\C(=O)NC1C(=O)N2C(C(=O)O)=C(Sc3nc4ccccc4s3)CS[C@H]12)c1nsc(N)n1` (some centres unmarked) [Compound A, 7-{(Z)-2-(5-amino-1,2,4-thiadiazol-3-yl)-2-methoxyiminoacetamido}-3-(benzothiazol-2-yl)thio-3-cephem-4-carboxylic acid], the MIC in series [2] was 3.13 µg/mL (≈ 5.69 µM); in series [3], 1.56 µg/mL (≈ 2.84 µM); against M. morganii 1510/S-l it was 1.56 µg/mL (≈ 2.84 µM); against E. coli NIHJ JC-2, 3.13 µg/mL (≈ 5.69 µM); in the series on Sta. aureus 209P JC-1, 0.39 µg/mL (≈ 0.71 µM); against P. vulgaris GN 76, 3.13 µg/mL (≈ 5.69 µM). The MIC in [4] worked out at 0.39 µg/mL (≈ 0.71 µM); against K. pneumoniae PCI 602, 3.13 µg/mL (≈ 5.69 µM). Moreover, the 50% lethal dose (LD50) in [5] lay in the range of 1000 to 1500 mg/kg. Also, the Cmax in series [1] was determined as 126 µg/mL. In series [1], the half-life is 1.8 h. In [1], the AUC stood at 343 µg·h/mL.

What is called half-life is the time needed for the level to fall by half in the phase considered. The term MIC denotes the lowest concentration found to suppress growth. A higher MIC goes with a need for much substance. A word on the LD50: it is the dose at which mortality reaches 50%. The low end stands for a more toxic substance, the high end for a less toxic substance.
